Laboratory results reported in patent US20230084927A1, “GLUCOSE UPTAKE INHIBITORS AND USES THEREOF” (METABOMED LTD., priority 2019, published 2023).

Tests used:
[1] = tested on: SDH-KO-HRAS cells (SDHB-deficient); experiment: Cellular / differential toxicity assay (CellTiter-Glo, 3 days); format: cell-based, murine; conditions: Mus musculus, 72 h, toxicity, SDH-KO cells, 3 days, CellTiter-Glo; read-out: EC50 (uM) SDH-KO-HTAS-C17
Experimental: (§1) Identification of compounds that target specifically SDH-deficient cells was done by screening a library of small-molecule by using a differential toxicity screen with SDHB-proficient vs. SDHB-deficient cells (the […] cells were described in Cardaci 2015).
(§2) Cells Used for the Differential Assays: SDH-WT; SDH-KO-HRAS
(§3) Cell Culture Conditions: • Medium: DMEM-F12 medium+1 mM Glutamine+3% FBS • Plates: 96 well plate—Black, clear flat bottom • Incubation time: 3 days • Compound concentration: 10 point dilution starting from 10 uM to 0.0065 uM or a lower range when needed. • Viability assay at the end of incubation: Celltiter-Glo (CTG) from Promega.
(§4) Protocol: • Day 1: Plate cells in 96 well plate together with the appropriate concentration of compound.
(§5) Incubate for 3 days at 37° C. in 5% CO2 tissue culture incubator. • Day 4: Check viability of cells by adding CTG reagent and read luminescence in plate reader
(§6) SDH-WT and SDH-KO cells were grown in DMEM F12 supplemented with 1 mM Glutamine+3% FBS were treated with different concentrations of the indicated compounds in FIG. 11. Cell viability was determined 72 hours later by CellTiter Glue reagent (Promega), the luminescence was measured with ClarioStar reader (BMG) and the EC50s were calculated by Prism.
as §6, with “compounds.” for “compounds in FIG. 11.”
(§7) The cells were grown in DMEM F12 supplemented with 1 mM Glutamine+3% FBS were treated with different concentrations of the indicated compounds. Cell viability was determined 72 hours later by CellTiter Glue reagent (Promega), the luminescence was measured with ClarioStar reader (BMG) and the EC50s were calculated by Prism. Murine SDHB-WT/KO, HRAS transformed isogenic pair (FIG. 12A); UOK269, Human Tumor-derived SDHB-deficient RCC in their WT counterpart with re-expression of SDHB (FIG. 12B); and ACHN, RCC cells, and their SDHB-KO (SDHB CRISPRed out) isogenic cells (FIG. 12C).

SDH-WT cells = experiment: as above; format: cell-based, murine; conditions: Mus musculus, 72 h, toxicity, SDH-WT cells, 3 days, CellTiter-Glo; read-out: EC50 (uM) SDH-WT
Experimental: as §1, §2, §3, §4, §5, §6
as §6, with “compounds.” for “compounds in FIG. 11.”
as §7

Row | SMILES | EC50 [1] [µM] | EC50 (SDH-WT cells) [µM]
1 | COCCOCCOCCOCCOCCOC(=O)c1c2c(nc3sc4c(NCCc5ccc6[nH]cnc6c5)ncnc4c13)CC(C)(C)OC2 [Compound 163] | 1 to 3 | > 10
2 | COCCOCCOCCOCCOC(=O)c1c2c(nc3sc4c(NCCc5ccc6[nH]cnc6c5)ncnc4c13)CC(C)(C)OC2 [Compound 164] | < 1 | 3 to 10
3 | COCCOCCOCCOC(=O)c1c2c(nc3sc4c(NCCc5ccc6[nH]cnc6c5)ncnc4c13)CC(C)(C)OC2 [Compound 165, 2-(2-(2-Methoxyethoxy)ethoxy)ethyl 4-((2-(1H-benzo[d]imidazol-6-yl)ethyl)amino)-8,8-dimethyl-8,10-dihydro-7H-pyrano[3″,4″:5′,6′]pyrido[3′,2′:4,5]thieno[3,2-d]pyrimidine-11-carboxylate] | 1 to 3 | > 10
4 | CC1(C)Cc2nc3c(c(S(C)(=O)=O)c2CO1)-c1ncnc(NCCc2ccc4[nH]cnc4c2)c1S3(=O)=O [Compound 166] | 3 to 10 | 3 to 10
5 | CSc1c2c(nc3sc4c(NCCc5ccc6nc[nH]c6c5)ncnc4c13)CC(C)(C)OC2 [Compound 167] | < 1 | < 1
6 | CC(=O)OC1CCc2nc3sc4c(NCCc5ccc6[nH]cnc6c5)ncnc4c3cc2C1 (stereo not drawn) [Compound 168] | < 1 | 1 to 3
7 | OC1CCc2nc3sc4c(NCCc5ccc6[nH]cnc6c5)ncnc4c3cc2C1 (stereo not drawn) [Compound 169] | < 1 | 1 to 3
8 | CCOC(=O)c1c2c(nc3sc4c(NCCc5ccc6[nH]cnc6c5)ncnc4c13)CC(C)(C)OC2 [Compound 170, Ethyl 4-((2-(1H-benzo[d]imidazol-5-yl)ethyl)amino)-8,8-dimethyl-8,10-dihydro-7H-pyrano[3″,4″:5′,6′]pyrido[3′,2′:4,5]thieno[3,2-d]pyrimidine-11-carboxylate] | < 1 | < 1
9 | CC1(C)Cc2nc3sc4c(NCCc5ccc6[nH]cnc6c5)ncnc4c3c(C(=O)O)c2CO1 [Compound 171, 4-((2-(1H-Benzo[d]imidazol-6-yl)ethyl)amino)-8,8-dimethyl-8,10-dihydro-7H-pyrano[3″,4″:5′,6′]pyrido[3′,2′:4,5]thieno[3,2-d]pyrimidine-11-carboxylic Acid] | 3 to 10 | 3 to 10
10 | CC(CNc1ncnc2c1sc1nc3c(cc12)COC(C)(C)C3)c1ccc2c(c1)ncn2C (stereo not drawn) [Compound 172] | 3 to 10 | 3 to 10
11 | Cn1cnc2cc(CCNc3ncnc4c3sc3nc5c(cc34)COC(C)(C)C5)ccc21 [Compound 173] | < 1 | 3 to 10
12 | CC1(C)Cc2nc3sc4c(NCCc5ccc(O)c([N+](=O)[O-])c5)ncnc4c3cc2CO1 [Compound 174] | 3 to 10 | < 1
13 | CC1(C)Cc2nc3sc4c(NCCc5ccc6ocnc6c5)ncnc4c3cc2CO1 [Compound 175] | 1 to 3 | 3 to 10
14 | CC(=O)OCc1nc2cc(CCNc3ncnc4c3sc3nc5c(cc34)COC(C)(C)C5)ccc2[nH]1 [Compound 176] | < 1 | 3 to 10
15 | CC(O)c1nc2cc(CCNc3ncnc4c3sc3nc5c(cc34)COC(C)(C)C5)ccc2[nH]1 (stereo not drawn) [Compound 177] | 1 to 3 | 3 to 10
16 | CC(=O)c1nc2cc(CCNc3ncnc4c3sc3nc5c(cc34)COC(C)(C)C5)ccc2[nH]1 [Compound 178] | < 1 | 3 to 10
17 | CC1(C)Cc2nc3sc4c(NCCc5ccc6[nH]c(CO)nc6c5)ncnc4c3cc2CO1 [Compound 179] | < 1 | 3 to 10
18 | CNc1ccc(CCNc2ncnc3c2sc2nc4c(cc23)COC(C)(C)C4)cc1[N+](=O)[O-] [Compound 180] | < 1 | 3 to 10
19 | CNc1ccc(CCN(C)c2ncnc3c2sc2nc4c(cc23)COC(C)(C)C4)cc1[N+](=O)[O-] [Compound 181] | 3 to 10 | 3 to 10
20 | CC1(C)Cc2nc3sc4c(NCCc5ccc(NC(=O)C(F)(F)F)c([N+](=O)[O-])c5)ncnc4c3cc2CO1 [Compound 182] | 1 to 3 | 3 to 10
21 | CC(=O)OCC(=O)Cc1ccc(CCNc2ncnc3c2sc2nc4c(cc23)COC(C)(C)C4)cc1N [Compound 183] | < 1 | 3 to 10
22 | CC(=O)OCC(=O)Cc1ccc(CCNc2ncnc3c2sc2nc4c(cc23)COC(C)(C)C4)cc1[N+](=O)[O-] [Compound 184] | 3 to 10 | 3 to 10
23 | CC(=O)OC(C)c1nc2cc(CCNc3ncnc4c3sc3nc5c(cc34)COC(C)(C)C5)ccc2[nH]1 (stereo not drawn) [Compound 185] | 1 to 3 | 3 to 10
24 | CC(=O)OC(C)C(=O)Nc1ccc(CCNc2ncnc3c2sc2nc4c(cc23)COC(C)(C)C4)cc1N (stereo not drawn) [Compound 186] | 1 to 3 | 3 to 10

Row | SMILES | EC50 [1] [µM] | EC50 (SDH-WT cells) [µM]
25 | CC(=O)OC(C)C(=O)Nc1ccc(CCNc2ncnc3c2sc2nc4c(cc23)COC(C)(C)C4)cc1[N+](=O)[O-] (stereo not drawn) [Compound 187] | 3 to 10 | 1 to 3
26 | CC(C)c1nc2cc(CCNc3ncnc4c3sc3nc5c(cc34)COC(C)(C)C5)ccc2[nH]1 [Compound 188] | 3 to 10 | 1 to 3
27 | CC1(C)Cc2nc3sc4c(NCCc5ccc6[nH]c(N)nc6c5)ncnc4c3cc2CO1 [Compound 189] | < 1 | 1 to 3
28 | CC1(C)Cc2nc3sc4c(NCCc5ccc6[nH]c(-c7ccccc7)nc6c5)ncnc4c3cc2CO1 [Compound 190] | 1 to 3 | < 1
29 | CC(=O)CNc1ccc(CCNc2ncnc3c2sc2nc4c(cc23)COC(C)(C)C4)cc1F [Compound 191] | 1 to 3 | 3 to 10
30 | CC1(C)Cc2nc3sc4c(NCCc5ccc(NCc6ccccc6)c(N)c5)ncnc4c3cc2CO1 [Compound 192] | < 1 | < 1
31 | CC1(C)Cc2nc3sc4c(NCCc5ccc(N)c(N)c5)ncnc4c3cc2CO1 [Compound 193] | < 1 | 1 to 3
32 | Cc1nc2cc(CCNc3ncnc4c3sc3nc5c(cc34)COC(C)(C)C5)ccc2[nH]1 [Compound 194] | < 1 | < 1
33 | COc1nc2cc(CCNc3ncnc4c3sc3nc5c(cc34)COC(C)(C)C5)ccc2[nH]1 [Compound 195] | < 1 | < 1
34 | CC1(C)Cc2nc3sc4c(NCCc5ccc6[nH]c(=O)[nH]c6c5)ncnc4c3cc2CO1 [Compound 196] | < 1 | 3 to 10
35 | CC1(C)Cc2nc3sc4c(NCCc5ccc(NC(=O)c6ccccc6)c([N+](=O)[O-])c5)ncnc4c3cc2CO1 [Compound 197] | 1 to 3 | 3 to 10
36 | CC(=O)CN(C(=O)C(F)(F)F)c1ccc(CCNc2ncnc3c2sc2nc4c(cc23)COC(C)(C)C4)cc1F [Compound 198] | < 1 | 3 to 10
37 | CC(C)C(=O)Nc1ccc(CCNc2ncnc3c2sc2nc4c(cc23)COC(C)(C)C4)cc1[N+](=O)[O-] [Compound 199] | 1 to 3 | 1 to 3
38 | CC1(C)Cc2nc3sc4c(NCCc5ccc(NC(=O)C(F)(F)F)c(F)c5)ncnc4c3cc2CO1 [Compound 200] | 1 to 3 | 3 to 10
39 | CC1(C)Cc2nc3sc4c(NCCc5ccc6[nH]nnc6c5)ncnc4c3cc2CO1 [Compound 201] | < 1 | 1 to 3
40 | CC1(C)Cc2nc3sc4c(NCCc5ccc6occc6c5)ncnc4c3cc2CO1 [Compound 202] | < 1 | 3 to 10
41 | CC1(C)Cc2nc3sc4c(NCCc5ccc(N)c(F)c5)ncnc4c3cc2CO1 [Compound 203] | < 1 | > 10
42 | CC(=O)Nc1ccc(CCNc2ncnc3c2sc2nc4c(cc23)COC(C)(C)C4)cc1F [Compound 204] | 1 to 3 | > 10
43 | CC1(C)Cc2nc3sc4c(NCCc5ccc(N)c([N+](=O)[O-])c5)ncnc4c3cc2CO1 [Compound 205] | < 1 | 3 to 10
44 | CC1(C)Cc2nc3sc4c(NCCc5ccc6[nH]cnc6c5)ncnc4c3c(-c3ccccc3)c2CO1 [Compound 206] | < 1 | < 1
45 | COc1ccc(CCNC(=O)c2sc3nc4c(cc3c2NC(=O)C(F)(F)F)COC(C)(C)C4)cc1F [Compound 207] | 3 to 10 | 1 to 3
46 | COc1ccc(CCNC(=O)c2sc3nc4c(cc3c2N)COC(C)(C)C4)cc1F [Compound 208] | > 10 | > 10
47 | COc1ccc(CCNc2ncnc3c2sc2nc4c(cc23)CC(C(=O)O)CC4)cc1F (stereo not drawn) [Compound 209] | > 10 | > 10
48 | CC1(C)Cc2nc3sc4c(NCCc5ccc6[nH]cnc6c5)ncnc4c3c(C(=O)OCCCCCCCC(=O)O)c2CO1 [Compound 210] | 3 to 10 | < 1
